Assay results published in patent US20240124409A1, “GUAIANOLIDE SESQUITERPENE LACTONE DERIVATIVES AND PHARMACEUTICAL USE THEREOF” (NANJING UNIVERSITY OF CHINESE MEDICINE, priority 2021, published 2024).

Columns and labels:
[1] = system: DSS-induced UC model mice; experiment: Anti-ulcerative colitis activity, DSS mouse colitis model; type: in vivo, C57BL/6 mice; parameters: key to DAI score: DAI = (weight loss + stool + occult blood scores)/3; settings: for MPO activity in colon tissue / Colon length: 10 days
Procedure: Except for the normal group, the other mice were free to drink 2.5% DSS for 7 days, which was then replaced to distilled water to be drunk freely for 3 days to establish the UC model. […] The mice in the normal group and model groups were administered intragastrically the same volume of the solvent 0.5% CMC-Na.
The general living conditions of the mice in each group were observed and the disease activity indexs (DAI) were evaluated. The daily specific observation indicator was weight, stool property and occult blood state of mice, and then the scores of the weight loss, stool property and occult blood state were added to determine the average value, so as to obtain the DAI score of each mouse, that is, DAI=(weight loss score+stool property score+occult blood state score)/3, to evaluate the disease activity.
Test method of occult blood: Using o-toluidine method, a little feces was picked up into a 24-well culture plate with a cotton swab, into which was first added 200 μL of the solution of o-toluidine glacial acetic acid, and then quickly added 200 μL of 3% hydrogen peroxide solution. Those turned blue-brown within 2 minutes were positive.
1 h after the last administration, blood was collected from the venous plexus of fundus oculi, stood at room temperature for 2 h, and centrifuged at 3000 rpm for 20 min. The serum was aspirated, aliquoted, and frozen at −70° C. for subsequent use. After the blood collection, the mice were sacrificed by cervical dislocation, and the abdominal cavity was opened. The colon tissues were removed 1 cm away from the anus, rinsed twice with pre-cooled PBS, and frozen at −70° C. for subsequent use.
The shortening of colon length is one of the main characteristics of DSS-induced UC model mice. After dissecting the abdominal cavity of the UC mice, the colon and distal ileum tissues were dissociated. The external morphological changes of the colon tissues were observed, the colon length was measured and recorded, and the photos were taken.
40 mg of colon tissues of the mice in each group was taken, into which was added 400 μL of pre-cooled normal saline to prepare tissue homogenates. After centrifugation at 4° C. and 1200 rpm for 5 min, the supernatants were collected. According to the method described in the kit instructions, various reagents were added sequentially, and finally the absorbance value of each well was determined at the wavelength of 460 nm of the microplate reader to calculate the MPO activity.
MPO activity (U/g wet weight)=(OD value of test tube−OD value of control tube)/11.3×sampling amount(g)

mouse sepsis model = experiment: Mouse sepsis model (LPS), Q-PCR of inflammatory factors; type: in vivo, C57BL/6 mice; parameters: key: relative mRNA by 2^−ΔΔCt, normalized to Gapdh
From the text: The mice were randomly divided into 8 groups, one of which was randomly selected as the normal group, and the other 7 groups were the model group, the parent drug 1 (0.4 and 4 μmol/kg), the hydrochloride 22 (4 μmol/kg), the fumarate 23 (0.4 and 4 μmol/kg) and dexamethasone (Dex, 12 μmol/kg) groups, respectively, with 6 mice in each group. 5 days before model establishment, the parent drug 1 (0.4 and 4 μmol/kg), the hydrochloride 22 (4 μmol/kg), the fumarate 23 (0.4 and 4 μmol/kg) and Dex (12 μmol/kg) were administered intragastrically. The mice in the normal group and model group were administered intragastrically the same volume of the solvent 0.5% CMC-Na. LPS (10 mg/kg) was injected intraperitoneally 1 hour after administration on the last day to establish a mouse sepsis model.
At 6 h after intraperitoneal injection of LPS, the mice were sacrificed by cervical dislocation, and the abdominal cavity was opened. The lungs, livers and kidneys were taken out, and rinsed twice with pre-cooled PBS. The lung tissues, liver left lobe tissues and kidney tissues of the mice were cut, and fixed with 4% paraformaldehyde for 24-48 h. The remaining tissues were frozen at −70° Cfor subsequent use.
20 mg of kidney, lung and liver tissues were accurately weighed, rinsed with pre-cooled PBS solution, cut into small pieces by ophthalmic surgical scissors, and put into a glass homogenizer, into which was added 1 mL Trizol reagent for grinding to prepare tissue homogenate. Subsequently, the homogenate was transferred into a 1.5 mL EP tube without RNase and lysed on ice for 10 min. 200 μL chloroform was added, and the mixture was shaken violently, stood on ice for 3-5 min, and centrifuged at 12000 rpm and 4° C. for 15 min. The supernatant was aspirated carefully into a new 1.5 mL EP tube without RNase, into which was added the same volume of pre-cooled isopropanol, stood on an ice bath for 30 min, centrifuged at 12000 rpm and 4° C. for 10 min, and the supernatant was discarded. 75% ethanol-DEPC solution was added to wash the precipitate, and the total RNA was obtained by inversion and air drying on flat paper. Subsequently, 10 μL of DEPC treated water was added for dissolution. 1 μL of the total RNA solution was taken, and diluted to 100 times, the OD values of which at 260 nm and 280 nm were measured with a full wavelength microplate reader. If the ratio of OD260/OD280 is between 1.8 and 2.0, it is said that the extracted RNA has a high purity, i.e., it can be used in subsequent experiments.
Subsequent experiments were carried out with 20 μL of a reverse transcription reaction system according to the method described in the kit instructions:
Subsequent experiments were carried out with 20 μL of a reaction system according to the method described in the kit instructions:
The above reagents were added into a micro-reaction tube, sealed with a sealing membrane, and placed in a Q-PCR instrument. The parameters were set according to the following reaction conditions to carry out the amplification experiment. The reaction conditions were as follows:
The threshold cycle (Ct) value of each group was recorded. Calculating and analyzing were carried out by the 2^−ΔΔCt method (the expression level of the control gene Gapdh was set to 1 to correct the expression level of the target gene).

[2] = Table 12, title 'in lung' (text b281: liver), 0.4 μmol/kg i.g.
[3] = Table 12, title 'in lung' (text b281: liver), 4 μmol/kg i.g.

`CN(C)C[C@@H]1C(=O)O[C@H]2[C@H]1CC[C@@]1(C)C[C@]13CC[C@@](C)(O)[C@H]23` [Compound 23] was tested, and the “MPO activity in colon tissue” value ([1]; 20 nmol/kg i.g.) was 1.29 ± 0.11 U/g tissue, the Colon length ([1]; 20 nmol/kg/d i.g.) was 6.51 ± 0.25 cm and the “MPO activity in colon tissue” value ([1]; 40 nmol/kg i.g.) was 0.99 ± 0.18 U/g tissue. The Colon length ([1]; 40 nmol/kg/d i.g.) was 7.26 ± 0.26 cm, the DAI score ([1]; day 1, 20 nmol/kg i.g.) was 0.00 ± 0.00 and the DAI score ([1]; day 1, 40 nmol/kg i.g.) was 0.00 ± 0.00. For the same molecule, the DAI score ([1]; day 2, 20 nmol/kg i.g.) was 0.27 ± 0.09, the DAI score ([1]; day 2, 40 nmol/kg i.g.) was 0.16 ± 0.10 and the DAI score ([1]; day 3, 20 nmol/kg i.g.) was 0.63 ± 0.14. The DAI score ([1]; day 3, 40 nmol/kg i.g.) was 0.54 ± 0.11, the DAI score ([1]; day 4, 20 nmol/kg i.g.) was 0.96 ± 0.16 and the DAI score ([1]; day 4, 40 nmol/kg i.g.) was 1.20 ± 0.14. The DAI score ([1]; day 5, 20 nmol/kg i.g.) was 1.02 ± 0.23, the DAI score ([1]; day 5, 40 nmol/kg i.g.) was 0.61 ± 0.23 and the DAI score ([1]; day 6, 20 nmol/kg i.g.) was 1.56 ± 0.41. The DAI score ([1]; day 6, 40 nmol/kg i.g.) was 1.07 ± 0.25, the DAI score ([1]; day 7, 20 nmol/kg i.g.) was 2.28 ± 0.23 and the DAI score ([1]; day 7, 40 nmol/kg i.g.) was 1.38 ± 0.25. The DAI score ([1]; day 8, 20 nmol/kg i.g.) was 2.46 ± 0.26, the DAI score ([1]; day 8, 40 nmol/kg i.g.) was 1.57 ± 0.28 and the DAI score ([1]; day 9, 20 nmol/kg i.g.) was 1.31 ± 0.18. For the same molecule, the DAI score ([1]; day 9, 40 nmol/kg i.g.) was 1.05 ± 0.25, the DAI score ([1]; day 10, 20 nmol/kg i.g.) was 0.80 ± 0.16 and the DAI score ([1]; day 10, 40 nmol/kg i.g.) was 0.35 ± 0.16. The “Il1 mRNA expression” value (mouse sepsis model; [2]) was 10.46 ± 1.55, the “Il6 mRNA expression” value (mouse sepsis model; [2]) was 9.13 ± 0.80 and the “Tnf mRNA expression” value (mouse sepsis model; [2]) was 7.63 ± 1.97. The “Il1 mRNA expression” value (mouse sepsis model; [3]) was 4.36 ± 0.94, the “Il6 mRNA expression” value (mouse sepsis model; [3]) was 4.97 ± 0.77 and the “Tnf mRNA expression” value (mouse sepsis model; [3]) was 7.10 ± 1.09. The “Il1 mRNA expression” value (mouse sepsis model; kidney, 0.4 μmol/kg i.g.) was 6.56 ± 0.88, the “Il6 mRNA expression” value (mouse sepsis model; kidney, 0.4 μmol/kg i.g.) was 6.05 ± 0.19 and the “Tnf mRNA expression” value (mouse sepsis model; kidney, 0.4 μmol/kg i.g.) was 6.70 ± 0.80. For the same molecule, the “Il1 mRNA expression” value (mouse sepsis model; kidney, 4 μmol/kg i.g.) was 2.82 ± 0.33, the “Il6 mRNA expression” value (mouse sepsis model; kidney, 4 μmol/kg i.g.) was 2.70 ± 0.52 and the “Tnf mRNA expression” value (mouse sepsis model; kidney, 4 μmol/kg i.g.) was 6.04 ± 1.62. The “Il1 mRNA expression” value (mouse sepsis model; lung, 0.4 μmol/kg i.g.) was 13.30 ± 0.88, the “Il6 mRNA expression” value (mouse sepsis model; lung, 0.4 μmol/kg i.g.) was 18.40 ± 3.16 and the “Tnf mRNA expression” value (mouse sepsis model; lung, 0.4 μmol/kg i.g.) was 8.79 ± 1.18. The “Il1 mRNA expression” value (mouse sepsis model; lung, 4 μmol/kg i.g.) was 6.79 ± 0.72, the “Il6 mRNA expression” value (mouse sepsis model; lung, 4 μmol/kg i.g.) was 9.10 ± 1.20 and the “Tnf mRNA expression” value (mouse sepsis model; lung, 4 μmol/kg i.g.) was 8.67 ± 1.51.

For `C=C1C(=O)O[C@@H]2[C@H]3C(C)=CC[C@@]34O[C@@]4(C)CC[C@@H]12` [arglabin, reference compound], the “MPO activity in colon tissue” value ([1]; 20 nmol/kg i.g.) was 0.95 ± 0.18 U/g tissue, the Colon length ([1]; 20 nmol/kg/d i.g.) was 6.50 ± 0.15 cm and the DAI score ([1]; day 1, 20 nmol/kg i.g.) was 0.00 ± 0.00. For the same molecule, the DAI score ([1]; day 2, 20 nmol/kg i.g.) was 0.36 ± 0.20, the DAI score ([1]; day 3, 20 nmol/kg i.g.) was 0.65 ± 0.20 and the DAI score ([1]; day 4, 20 nmol/kg i.g.) was 1.17 ± 0.19. It also gave a DAI score ([1]; day 5, 20 nmol/kg i.g.) of 1.39 ± 0.13, a DAI score ([1]; day 6, 20 nmol/kg i.g.) of 1.62 ± 0.10 and a DAI score ([1]; day 7, 20 nmol/kg i.g.) of 2.07 ± 0.17. The DAI score ([1]; day 8, 20 nmol/kg i.g.) was 2.32 ± 0.10, the DAI score ([1]; day 9, 20 nmol/kg i.g.) was 1.45 ± 0.13 and the DAI score ([1]; day 10, 20 nmol/kg i.g.) was 0.92 ± 0.06.
